Experimental data taken from US20040266742A1, “Combination therapy of an sodm and a corticosteroid for prevention and/or treatment of inflammatory disease” (priority 2001, published 2004).
“Also recorded” adds a separate entry of the source.

How the values were obtained:
[1] = test system: carrageenan-induced paw edema; test: Carrageenan-induced paw edema in rats; assay type: in vivo, sprague dawley rats
Experimental: Dexamethasone was given by lavage one hour before carrageenan. […] (1 mg/kg) was given intravenously 15 minutes before carrageenan. Male sprague dawley rats weighing between 200 and 210 g were used. Paw edema was monitored for 6 hours. Results express delta change from basal. Each number is the mean+s.e.m. for n=4 rats per group.

[2] = relative potency; cited from earlier work
[3] = relative potency; cited from earlier work; remark: listed apart in the source
[4] = cited from earlier work
nitrotyrosine = test: Nitrotyrosine immunostaining in paw/joint of collagen-induced arthritis rats; assay type: in vivo, Lewis rats; conditions: day 35; low doses alone: DEX 0.01 mg/kg or M40403 2 mg/kg
Experimental: (§1) Immunohistochemical Localization of Nitrotyrosine, PARS, COX-2 and iNOS At day 35, the joints organs were then trimmed, placed in decalcifying solution for 24 hours and 8 μm sections were prepared from paraffin embedded tissues. After deparaffinization, endogenous peroxidase was quenched with 0.3% H2O2 in 60% methanol for 30 minutes. The sections were permeabilized with 0.1% Triton X-100 in PBS for 20 minutes. Non-specific adsorption was minimized by incubating the section in 2% normal goat serum in phosphate buffered saline for 20 minutes. Endogenous biotin or avidin binding sites were blocked by sequential incubation for 15 minutes with avidin and biotin. Sections were incubated overnight with 1) anti-rabbit polyclonal antibody directed at iNOS (1:1000 in PBS, v/v) (DBA, Milan, Italy) or 2) with anti-COX-2 goat policlonal antibody (1:500 in PBS, v/v) or 3) with anti-nitrotyrosine rabbit policlonal antibody (1:1000 in PBS, v/v) or 4) with anti-poly (ADP-Ribose) goat policlonal antibody rat (1:500 in PBS, v/v). Controls included buffer alone or non-specific purified rabbit IgG. Specific labelling was detected with a biotin-conjugated goat anti-rabbit IgG (for nitrotyrosine and iNOS) or with a biotin-conjugated […] and avidin-biotin peroxidase complex. […]

PARS = PARS immunostaining in paw/joint of collagen-induced arthritis rats; assay type: in vivo, Lewis rats; conditions: day 35; low doses alone: DEX 0.01 mg/kg or M40403 2 mg/kg
Experimental: as §1

iNOS = iNOS immunostaining in paw/joint of collagen-induced arthritis rats; assay type: in vivo, Lewis rats; conditions: day 35; low doses alone: DEX 0.01 mg/kg or M40403 2 mg/kg
Experimental: as §1

COX-2 = COX-2 immunostaining in paw/joint of collagen-induced arthritis rats; assay type: in vivo, Lewis rats; conditions: day 35; low doses alone: DEX 0.01 mg/kg or M40403 2 mg/kg
Experimental: as §1

[5] = Body weight gain in collagen-induced arthritis rats; assay type: in vivo, Lewis rats; conditions: day 25 to 35; low doses alone: DEX 0.01 mg/kg or M40403 2 mg/kg
Source text: Animals were randomly divided into six groups (n=10 for each group) as follows: […]

With “5,10,15,20-tetrakis (2,4,6-trimethyl-3,5-disulfonatophenyl)-porphyrinato iron (III) [FeTMPS]” the “Paw edema, delta change from basal” value ([1]; FeTMPS 1 mpk intravenously 15 minutes before carrageenan, 0 h post carrageenan) was 0, the “Paw edema, delta change from basal” value ([1]; FeTMPS 1 mpk, 1 h post carrageenan) was 0.6 ± 0.02 and the “Paw edema, delta change from basal” value ([1]; FeTMPS 1 mpk, 2 h post carrageenan) was 0.9 ± 0.05. The “Paw edema, delta change from basal” value ([1]; FeTMPS 1 mpk, 3 h post carrageenan) was 1.1 ± 0.01, the “Paw edema, delta change from basal” value ([1]; FeTMPS 1 mpk, 4 h post carrageenan) was 1.2 ± 0.02 and the “Paw edema, delta change from basal” value ([1]; FeTMPS 1 mpk, 5 h post carrageenan) was 1 ± 0.03. The “Paw edema, delta change from basal” value ([1]; FeTMPS 1 mpk, 6 h post carrageenan) was 1.3 ± 0.02.
In the case of `C[C@H]1C[C@@H]2[C@H]([C@@H](O)C[C@@]3(C)[C@H]2CC[C@]3(O)C(=O)CO)[C@@]2(C)C=CC(=O)C=C12` [6a-Methyl-prednisolone], the “Anti-inflammatory Potency” value [2] is listed as 5, the “Na+-retaining Potency” value [3] is listed as 0.5 and the “Duration (T½, Hours)” value [4] is listed as 12 to 36 h.
In the case of `C[C@]12CCC(=O)C=C1CC[C@@H]1[C@@H]2[C@@H](O)C[C@@]2(C)[C@H]1CC[C@]2(O)C(=O)CO` [Cortisol], the “Anti-inflammatory Potency” value [2] is listed as 1, the “Na+-retaining Potency” value [3] is listed as 1 and the “Duration (T½, Hours)” value [4] is listed as 8 to 12 h.
For `C[C@]12CCC(=O)C=C1CC[C@@H]1[C@@H]2C(=O)C[C@@]2(C)[C@H]1CC[C@]2(O)C(=O)CO` [Cortisone], the “Anti-inflammatory Potency” value [2] is given as 0.8 and the “Na+-retaining Potency” value [3] is given as 0.8.
In the case of `C[C@]12CCC(=O)C=C1CC[C@H]1[C@@H]3CC[C@](O)(C(=O)CO)[C@@]3(C)C[C@H](O)[C@@]12F` [Fludrocortisone], the “Duration (T½, Hours)” value [4] is given as 8 to 12 h.
For `[Cl-].[Cl-].[Mn+2].c1cc2nc(c1)CN[C@@H]1CCCC[C@H]1NCCN[C@@H]1CCCC[C@H]1NC2` [M40403], the “Nitrotyrosine immunostaining in joint” value (nitrotyrosine) was “No significant protective effect”, the “PARS immunostaining in joint” value (PARS) was “No significant protective effect” and the “iNOS immunostaining in joint” value (iNOS) was “had no effect on iNOS or COX-2 staining”. For the same compound, the “COX-2 immunostaining in joint” value (COX-2) was “had no effect on iNOS or COX-2 staining” and the Body weight gain [5] was “gained weight in a manner that was similar to CIA rats; also recorded: gained significantly less weight than the normal rats”.
For `C[C@]12C=CC(=O)C=C1CC[C@@H]1[C@@H]2[C@@H](O)C[C@@]2(C)[C@H]1CC[C@]2(O)C(=O)CO` [Prednisolone], the “Anti-inflammatory Potency” value [2] is given as 4, the “Na+-retaining Potency” value [3] is given as 0.8 and the “Duration (T½, Hours)” value [4] is given as 12 to 36 h.
For `C[C@]12C=CC(=O)C=C1CC[C@@H]1[C@@H]2C(=O)C[C@@]2(C)[C@H]1CC[C@]2(O)C(=O)CO` [Prednisone], the “Duration (T½, Hours)” value [4] is listed as 12 to 36 h.
In the case of `C[C@]12C=CC(=O)C=C1CC[C@H]1[C@@H]3C[C@@H](O)[C@](O)(C(=O)CO)[C@@]3(C)C[C@H](O)[C@@]12F` [Triamcinolone], the “Anti-inflammatory Potency” value [2] is given as 5, the “Na+-retaining Potency” value [3] is given as 0 and the “Duration (T½, Hours)” value [4] is given as 12 to 36 h.
